From patent US11883398B2, “Dipeptidylpeptidase 4 inhibition enhances lymphocyte trafficking, improving both naturally occurring tumor immunity and immunotherapy” (INSTITUT PASTEUR, priority 2015, dated 2024)

Key:
[1] = Thioglycollate induced peritonitis; assay type: in vivo, mouse; settings: 24 h after intraperitoneal thioglycollate, sitagliptin vs control
Description: WT and Dpp4^−/− mice were intraperitoneally injected with PBS or 1 μg of mCXCL10, mCXCL9 or mCCL5 (all from Peprotech). At the indicated time points, mice were sacrificed and peritoneal cells were collected in 10 mL of PBS. For thioglycollate induced peritonitis mice were intraperitoneally injected with thioglycollate 3% weight/volume, 24 hours before collection of peritoneal cells.

[2] = biological target: DPP9 (Homo sapiens, UniProt Q86TI2); settings: Verspohl 2012; Huan et al. 2015; cited from earlier work
Sequence of DPP9 (Q86TI2 whole entry, species assumed): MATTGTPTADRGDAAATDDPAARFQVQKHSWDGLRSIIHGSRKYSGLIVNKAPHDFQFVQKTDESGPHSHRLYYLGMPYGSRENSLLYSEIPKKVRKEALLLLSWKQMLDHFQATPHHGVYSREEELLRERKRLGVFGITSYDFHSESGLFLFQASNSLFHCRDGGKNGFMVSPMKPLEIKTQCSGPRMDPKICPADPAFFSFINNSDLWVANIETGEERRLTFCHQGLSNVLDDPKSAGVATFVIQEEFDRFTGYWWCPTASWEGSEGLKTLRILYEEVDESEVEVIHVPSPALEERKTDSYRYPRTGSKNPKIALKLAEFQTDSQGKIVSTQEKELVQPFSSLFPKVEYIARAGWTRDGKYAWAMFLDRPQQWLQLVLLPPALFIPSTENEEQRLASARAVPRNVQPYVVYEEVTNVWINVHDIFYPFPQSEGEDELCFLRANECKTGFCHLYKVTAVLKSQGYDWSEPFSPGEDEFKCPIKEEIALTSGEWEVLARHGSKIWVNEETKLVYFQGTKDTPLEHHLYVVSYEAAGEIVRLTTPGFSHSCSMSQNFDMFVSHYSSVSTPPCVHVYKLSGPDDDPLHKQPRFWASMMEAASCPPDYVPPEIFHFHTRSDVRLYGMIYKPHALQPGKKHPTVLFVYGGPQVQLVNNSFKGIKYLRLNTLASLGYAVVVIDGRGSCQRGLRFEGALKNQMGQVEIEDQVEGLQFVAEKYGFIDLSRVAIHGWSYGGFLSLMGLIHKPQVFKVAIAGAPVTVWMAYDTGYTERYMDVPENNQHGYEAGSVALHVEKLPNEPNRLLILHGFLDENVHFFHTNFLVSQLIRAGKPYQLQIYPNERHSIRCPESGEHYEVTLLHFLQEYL

N[C@@H](CC(=O)N1CCn2c(nnc2C(F)(F)F)C1)Cc1cc(F)c(F)cc1F [sitagliptin]
thioglycollate-induced neutrophil, monocyte and eosinophil migration [1]: no differences were observed
effect on DPP9 activity [2]: no effect
